From patent US10131679B2, “Substituted dihydropyrrolopyrazole compound” (UBE INDUSTRIES, LTD., priority 2014, dated 2018) come the findings set out here.

One assay deals with T1, CDK7 (Homo sapiens, UniProt P50613).
T1 construct: purchased Carna Biosciences, Inc. 04-108
The assay is described as follows: CDK7 enzyme inhibition test. Format: biochemical. The note with it: Ki=IC50/(1+S/Km); 33P bound to MBP, [γ-33P]ATP, 30° C. for 20 minutes; read-out: Ki value of CDK7 inhibitory activity. As for the experimental part: CDK7 Enzyme Inhibition Test
The preparation of a buffer solution was performed by mixing a N-2-hydroxyethylpiperazine-N′-2-ethanesulfonic acid buffer solution (HEPES buffer solution) (pH 7.4), dithiothreitol (DTT), Triton X-100, and magnesium chloride (MgCl2). A 500 μM [γ-^33P]ATP solution was used by diluting a 10 mM ATP solution and a commercially available [γ-^33P]ATP solution (manufactured by PerkinElmer, Inc., Code No. NEG-302H) with the buffer solution. A CDK7 solution was used by diluting commercially available CDK7 (manufactured by Carna Biosciences, Inc., Catalog No. 04-108) with the buffer solution. A substrate solution was used by diluting myelin basic protein (MBP) with the buffer solution. As for the preparation of a reaction solution, the buffer solution, the 500 μM [γ-^33P]ATP solution, the CDK7 solution, and the substrate solution were mixed at 4° C. to obtain a reaction solution.
CDK7 enzyme reaction was performed by adding 5 μL of a test compound solution prepared with 10% dimethyl sulfoxide (DMSO)/90% injectable distilled water, and 45 μL of the reaction solution to a 1.5 mL microtube at 4° C. and reacting in the microtube at 30° C. for 20 minutes in a water bath incubator. After the reaction, a 10% aqueous trichloroacetic acid (TCA) solution was added to each microtube while cooled to 4° C., and mixed to terminate the reaction. The resultant was left standing at 4° C. for 10 minutes and then centrifuged in a centrifuge, and the supernatant was discarded. Next, a 2% aqueous TCA solution was added, mixed, and then centrifuged in a centrifuge, and the supernatant was discarded. This washing operation was performed twice. After the washing, precipitates were dissolved in a 1 N aqueous sodium hydroxide (NaOH) solution, and the energy quantity (radioactivity) of the reaction product was measured with a liquid scintillation counter.
The calculation of the inhibitory activity of the test compound against CDK7 was performed as a test compound concentration inhibiting 50% of the amount of ^33P bound to MBP (IC50 value) by using EXSUS (version 8.0.0 or version 8.0.1, manufactured by CAC Exicare Corp.).
The calculation of a Ki value was performed according to the following calculation expression. S means the concentration of ATP contained in the reaction solution, and Km means a Michaelis-Menten constant. Ki=IC50/(1+S/Km)

Assay [1] concerns human large intestine cancer cell line (HCT-116). The assay is described as follows: Human large intestine cancer (HCT-116) cell growth inhibition test. The note with it: 72 h, HCT-116, culture for 3 days, sulforhodamine B absorbance. It counts as cell-based. Here is the method:
Human Large Intestine Cancer (HCT-116) Cell Growth Inhibition Test
The measurement of a human large intestine cancer cell growth inhibitory effect was carried out by modifying the method of Simak et al. (Cancer Research, 69, 6208 (2009)).
A human large intestine cancer cell line (HCT-116) (manufactured by DS Pharma Biomedical Co., Ltd., Cat. No. EC91091005) was cultured in McCoy's 5a (manufactured by GIBCO/Thermo Fisher Scientific, Inc., REF. 16600-082) medium containing 10% FBS (manufactured by GIBCO/Thermo Fisher Scientific, Inc., REF. 10082-147) and 1% penicillin/streptomycin/amphotericin B (manufactured by GIBCO/Thermo Fisher Scientific, Inc., REF. 15240-096) and inoculated at 1.0×10^3 cells/well in a 96-well plate (manufactured by Corning Inc., REF. 353072). After overnight culture in a carbon dioxide incubator, it was replaced with a fresh McCoy's 5a medium containing 10% FBS on the next day, and a test compound dissolved in DMSO (manufactured by Wako Pure Chemical Industries, Ltd., Code No. 043-07216) (final DMSO concentration: 0.1%) was added and left standing in a carbon dioxide incubator. After culturing for 3 days, the absorbance of each well was measured by using In Vitro Toxicology Assay Kit Sulforhodamine B based (manufactured by Sigma-Aldrich Co. LLC., Pcode 1001910706).
The rate of inhibition of cell growth at each concentration was calculated from the test compound concentration and the absorbance of sulforhodamine B, and the concentration of the test compound necessary for inhibiting 50% of cell growth (IC50 value) was calculated by using EXSUS (version 8.0.0 or version 8.0.1, manufactured by CAC Exicare Corp.).

pIC50, pKi: −log10 of the molar value. Bounds are passed on as bounds.

T1 sequence (P50613 whole entry): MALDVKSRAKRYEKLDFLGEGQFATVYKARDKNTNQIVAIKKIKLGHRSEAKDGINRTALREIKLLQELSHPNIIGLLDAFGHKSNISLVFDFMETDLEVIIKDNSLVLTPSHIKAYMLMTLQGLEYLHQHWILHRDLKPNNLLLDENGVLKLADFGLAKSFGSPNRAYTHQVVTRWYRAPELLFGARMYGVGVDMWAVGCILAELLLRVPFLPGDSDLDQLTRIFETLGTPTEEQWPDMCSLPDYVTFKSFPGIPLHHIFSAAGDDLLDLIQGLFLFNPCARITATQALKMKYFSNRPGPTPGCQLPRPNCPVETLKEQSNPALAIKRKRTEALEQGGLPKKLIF
T1 sequence (P51946 whole entry partner): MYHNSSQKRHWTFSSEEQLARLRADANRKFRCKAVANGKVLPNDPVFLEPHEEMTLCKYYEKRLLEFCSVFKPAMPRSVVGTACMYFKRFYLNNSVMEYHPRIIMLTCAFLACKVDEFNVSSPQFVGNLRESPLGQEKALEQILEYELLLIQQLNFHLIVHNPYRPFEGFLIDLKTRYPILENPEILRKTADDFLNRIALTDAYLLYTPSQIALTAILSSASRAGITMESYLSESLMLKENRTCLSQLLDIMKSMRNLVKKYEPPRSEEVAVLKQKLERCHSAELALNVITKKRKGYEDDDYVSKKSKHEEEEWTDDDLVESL
T1 sequence (P51948 whole entry partner): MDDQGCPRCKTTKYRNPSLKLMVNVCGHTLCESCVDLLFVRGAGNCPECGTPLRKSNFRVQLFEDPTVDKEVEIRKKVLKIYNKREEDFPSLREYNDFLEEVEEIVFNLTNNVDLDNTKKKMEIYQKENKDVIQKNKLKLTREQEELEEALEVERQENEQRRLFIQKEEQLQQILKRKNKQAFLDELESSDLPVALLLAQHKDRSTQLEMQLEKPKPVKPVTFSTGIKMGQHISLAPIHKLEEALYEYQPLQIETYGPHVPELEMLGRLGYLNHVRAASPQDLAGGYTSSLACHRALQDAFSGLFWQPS

Consider `CC1(C)c2[nH]nc(NC(=O)C3([Si](C)(C)C)CCC3)c2CN1C(=O)[C@@H](CO)c1ccccc1` [IV-1215, (R)—N-[5-(3-Hydroxy-2-phenylpropanoyl)-6,6-dimethyl-1,4,5,6-tetrahydropyrrolo[3,4-c]pyrazol-3-yl]-1-(trimethylsilyl)cyclobutanecarboxamide], for which the pKi at CDK7 was no less than 7.30. In assay [1], this compound gave a pIC50 of no less than 6.30.
`COCC(Oc1ccccc1)C(=O)N1Cc2c(NC(=O)C3([Si](C)(C)C)CCC3)n[nH]c2C1(C)C` (stereo not shown) [IV-1348, N-[5-(3-Methoxy-2-phenoxypropanoyl)-6,6-dimethyl-1,4,5,6-tetrahydropyrrolo[3,4-c]pyrazol-3-yl]-1-(trimethylsilyl)cyclobutanecarboxamide]: the pKi on CDK7 was no less than 7.30. In assay [1], this compound had a negative-log IC50 (pIC50) of no less than 6.30.
In the same order, the values of `CC1(C)c2[nH]nc(NC(=O)C3([Si](C)(C)C)CCC3)c2CN1C(=O)NC(c1ccccc1)C(F)(F)CO` (racemic) [IV-362, N-(2,2-Difluoro-3-hydroxy-1-phenylpropyl)-6,6-dimethyl-3-[1-(trimethylsilyl)cyclobutanecarboxamido]-4,6-dihydropyrrolo[3,4-c]pyrazole-5(1H)-carboxamide] are no less than 7.30 and no less than 6.30.
As to `CC(C)C(O)CNC(=O)N1Cc2c(NC(=O)C3([Si](C)(C)C)CCC3)n[nH]c2C1(C)C` (stereo not shown) [IV-446, N-(2-Hydroxy-3-methylbutyl)-6,6-dimethyl-3-[1-(trimethylsilyl)cyclobutanecarboxamido]-4,6-dihydropyrrolo[3,4-c]pyrazole-5(1H)-carboxamide], the pKi at CDK7 was no less than 7.30. Moreover, the pIC50 in assay [1] was no less than 6.30.
For the compound `COC(C)C(=O)N1Cc2c(NC(=O)C3([Si](C)(C)C)CCC3)n[nH]c2C1(C)C` (stereo not shown) [IV-1241, N-[5-(2-Methoxypropanoyl)-6,6-dimethyl-1,4,5,6-tetrahydropyrrolo[3,4-c]pyrazol-3-yl]-1-(trimethylsilyl)cyclobutanecarboxamide], the pKi at CDK7 was no less than 7.30. The pIC50 in assay [1] was no less than 6.30.
The like results for `C[C@@H](Oc1ccccc1)C(=O)N1Cc2c(NC(=O)C3([Si](C)(C)C)CC3)n[nH]c2C1(C)C` [III-1140, (R)—N-[6,6-Dimethyl-5-(2-phenoxypropanoyl)-1,4,5,6-tetrahydropyrrolo[3,4-c]pyrazol-3-yl]-1-(trimethylsilyl)cyclopropanecarboxamide] were, in that order, no less than 7.30 and no less than 6.30.
Consider `Cc1ccccc1[C@@H](CO)NC(=O)N1Cc2c(NC(=O)C3([Si](C)(C)C)CCC3)n[nH]c2C1(C)C` [IV-1067, (S)—N-[2-Hydroxy-1-(o-tolyl)ethyl]-6,6-dimethyl-3-[1-(trimethylsilyl)cyclobutanecarboxamido]-4,6-dihydropyrrolo[3,4-c]pyrazole-5(1H)-carboxamide], for which, at CDK7, the pKi is no less than 7.30. Further, the pIC50 in assay [1] is no less than 6.30.
Regarding `CC1(C)c2[nH]nc(NC(=O)C3([Si](C)(C)C)CCC3)c2CN1C(=O)[C@H](CO)c1ccccc1` [IV-633, (S)—N-[5-(3-Hydroxy-2-phenylpropanoyl)-6,6-dimethyl-1,4,5,6-tetrahydropyrrolo[3,4-c]pyrazol-3-yl]-1-(trimethylsilyl)cyclobutanecarboxamide], the pKi at CDK7 is no less than 7.30. In assay [1], this compound gave a pIC50 of no less than 6.30.
Consider `COCC(C(=O)N1Cc2c(NC(=O)C3([Si](C)(C)C)CCC3)n[nH]c2C1(C)C)c1ccccc1` (stereo not shown) [IV-634, N-[5-(3-Methoxy-2-phenylpropanoyl)-6,6-dimethyl-1,4,5,6-tetrahydropyrrolo[3,4-c]pyrazol-3-yl]-1-(trimethylsilyl)cyclobutanecarboxamide], for which the pKi on CDK7 was no less than 7.30. The pIC50 in assay [1] was no less than 6.30.
As for `CC1(C)c2[nH]nc(NC(=O)C3([Si](C)(C)C)CCC3)c2CN1C(=O)N[C@H](CO)Cc1ccccc1` [IV-862, (S)—N-(1-Hydroxy-3-phenylpropan-2-yl)-6,6-dimethyl-3-[1-(trimethylsilyl)cyclobutanecarboxamido]-4,6-dihydropyrrolo[3,4-c]pyrazole-5(1H)-carboxamide], on CDK7, the pKi was no less than 7.30. Further, the pIC50 in assay [1] was no less than 6.30.
For `CC(Oc1cccnc1)C(=O)N1Cc2c(NC(=O)C3([Si](C)(C)C)CCC3)n[nH]c2C1(C)C` (stereo not shown) [IV-1274, N-{6,6-Dimethyl-5-[2-(pyridin-3-yloxy)propanoyl]-1,4,5,6-tetrahydropyrrolo[3,4-c]pyrazol-3-yl}-1-(trimethylsilyl)cyclobutanecarboxamide], the negative logarithm of the Ki (pKi) on CDK7 is no less than 7.30. The pIC50 in assay [1] was no less than 6.30.
In the case of `COC(C(=O)N1Cc2c(NC(=O)C3([Si](C)(C)C)CCC3)n[nH]c2C1(C)C)c1ccc(F)cc1` (stereo not shown) [IV-1427, N-{5-[2-(4-Fluorophenyl)-2-methoxyacetyl]-6,6-dimethyl-1,4,5,6-tetrahydropyrrolo[3,4-c]pyrazol-3-yl}-1-(trimethylsilyl)cyclobutanecarboxamide], the pKi on CDK7 is no less than 7.30. The compound further had a pIC50 in assay [1] of no less than 6.30.
The like results for `CC1(C)c2[nH]nc(NC(=O)C3([Si](C)(C)C)CCC3)c2CN1C(=O)N[C@H](CO)c1ccccc1Cl` [IV-959, (S)—N-[1-(2-Chlorophenyl)-2-hydroxyethyl]-6,6-dimethyl-3-[1-(trimethylsilyl)cyclobutanecarboxamido]-4,6-dihydropyrrolo[3,4-c]pyrazole-5(1H)-carboxamide] were, in that order, no less than 7.30 and no less than 6.30.
With `CC1(C)c2[nH]nc(NC(=O)C3([Si](C)(C)C)CCC3)c2CN1C(=O)NC[C@H](O)c1ccccc1` [IV-786, (R)—N-(2-Hydroxy-2-phenylethyl)-6,6-dimethyl-3-[1-(trimethylsilyl)cyclobutanecarboxamido]-4,6-dihydropyrrolo[3,4-c]pyrazole-5(1H)-carboxamide], the pKi at CDK7 is no less than 7.30. The negative logarithm of the IC50 (pIC50) in assay [1] is no less than 6.30.

In general, pKi refers to the Ki on a negative log10 scale, so that one unit is a factor of ten. The term pIC50 denotes −log10 of the IC50, conventionally taken in molar units. Low readings indicate a high IC50, high ones a low IC50.
